Test results published in the kinase profiling compilation of Christmann-Franck et al. (2016).

What was measured:
ABL2 (human) = ABL2 (human) (UniProt P42684); assay: Caliper, Mobility shift assay off-chip
PRKAA2 (human) = PRKAA2 (human) (UniProt P54646); assay: Caliper, Mobility shift assay off-chip
PDGFRA (human) = PDGFRA (human) (UniProt P16234); assay: Caliper, Mobility shift assay off-chip
BRAF (human) = BRAF (human) (UniProt P15056); assay: ELISA
RAF1 (human) = RAF1 (human) (UniProt P04049); assay: ELISA
AURKA (human) = AURKA (human) (UniProt O14965); assay: Caliper, Mobility shift assay off-chip
CSF1R (human) = CSF1R (human) (UniProt P07333); assay: Caliper, Mobility shift assay off-chip
Sequence of CSF1R (human) (P07333 whole entry, looked up): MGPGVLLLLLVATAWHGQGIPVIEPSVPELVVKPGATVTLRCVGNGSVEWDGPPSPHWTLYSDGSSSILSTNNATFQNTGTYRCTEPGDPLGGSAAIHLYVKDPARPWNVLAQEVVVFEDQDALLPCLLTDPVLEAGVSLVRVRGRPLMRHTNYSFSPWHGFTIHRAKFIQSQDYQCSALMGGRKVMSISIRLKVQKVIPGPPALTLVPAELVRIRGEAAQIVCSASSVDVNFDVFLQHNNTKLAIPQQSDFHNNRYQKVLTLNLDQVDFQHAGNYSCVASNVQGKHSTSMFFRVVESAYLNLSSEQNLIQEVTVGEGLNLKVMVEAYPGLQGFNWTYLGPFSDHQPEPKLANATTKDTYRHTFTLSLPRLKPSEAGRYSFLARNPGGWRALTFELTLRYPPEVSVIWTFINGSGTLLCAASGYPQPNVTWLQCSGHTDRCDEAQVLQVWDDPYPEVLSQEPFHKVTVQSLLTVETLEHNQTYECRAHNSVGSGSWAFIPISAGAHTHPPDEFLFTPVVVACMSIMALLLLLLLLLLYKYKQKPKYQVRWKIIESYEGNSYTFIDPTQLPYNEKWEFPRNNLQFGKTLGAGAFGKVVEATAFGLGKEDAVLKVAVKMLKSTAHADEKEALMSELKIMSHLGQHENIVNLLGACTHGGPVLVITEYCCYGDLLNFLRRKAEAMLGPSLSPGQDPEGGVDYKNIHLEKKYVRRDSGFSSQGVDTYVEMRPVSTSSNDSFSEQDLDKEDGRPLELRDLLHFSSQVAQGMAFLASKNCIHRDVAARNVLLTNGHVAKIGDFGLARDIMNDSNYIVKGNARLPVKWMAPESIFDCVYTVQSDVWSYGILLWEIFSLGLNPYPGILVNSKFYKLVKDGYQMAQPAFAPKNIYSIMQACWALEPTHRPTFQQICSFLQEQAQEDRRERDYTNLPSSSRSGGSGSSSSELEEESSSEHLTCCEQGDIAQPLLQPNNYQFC

DDR2 (human) = DDR2 (human) (UniProt Q16832); assay: Caliper, Mobility shift assay off-chip
DDR1 (human) = DDR1 (human) (UniProt Q08345); assay: Caliper, Mobility shift assay off-chip
PRKAA1 (human) = PRKAA1 (human) (UniProt Q13131); assay: Caliper, Mobility shift assay off-chip
Sequence of PRKAA1 (human) (Q13131 whole entry, looked up): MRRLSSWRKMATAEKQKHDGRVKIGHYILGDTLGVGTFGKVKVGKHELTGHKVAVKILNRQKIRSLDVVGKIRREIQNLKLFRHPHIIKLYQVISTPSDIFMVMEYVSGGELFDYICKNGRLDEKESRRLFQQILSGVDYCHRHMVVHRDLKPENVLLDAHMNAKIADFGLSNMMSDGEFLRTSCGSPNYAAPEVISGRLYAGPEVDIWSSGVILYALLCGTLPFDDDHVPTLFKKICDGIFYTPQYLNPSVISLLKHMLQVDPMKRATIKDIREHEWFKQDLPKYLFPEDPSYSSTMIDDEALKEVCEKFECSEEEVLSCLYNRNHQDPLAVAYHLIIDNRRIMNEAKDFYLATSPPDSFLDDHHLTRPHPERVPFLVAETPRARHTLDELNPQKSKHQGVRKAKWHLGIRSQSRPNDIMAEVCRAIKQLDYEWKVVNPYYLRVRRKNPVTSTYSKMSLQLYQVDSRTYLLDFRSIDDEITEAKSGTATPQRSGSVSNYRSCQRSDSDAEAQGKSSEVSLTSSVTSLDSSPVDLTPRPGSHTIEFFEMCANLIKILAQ

MAPK14 (human) = MAPK14 (human) (UniProt Q16539); assay: Caliper, Mobility shift assay off-chip
MUSK (human) = MUSK (human) (UniProt O15146); assay: Caliper, Mobility shift assay off-chip
EPHA6 (human) = EPHA6 (human) (UniProt Q9UF33); assay: Caliper, Mobility shift assay off-chip
PDGFRB (human) = PDGFRB (human) (UniProt P09619); assay: Caliper, Mobility shift assay off-chip
Sequence of PDGFRB (human) (P09619 whole entry, looked up): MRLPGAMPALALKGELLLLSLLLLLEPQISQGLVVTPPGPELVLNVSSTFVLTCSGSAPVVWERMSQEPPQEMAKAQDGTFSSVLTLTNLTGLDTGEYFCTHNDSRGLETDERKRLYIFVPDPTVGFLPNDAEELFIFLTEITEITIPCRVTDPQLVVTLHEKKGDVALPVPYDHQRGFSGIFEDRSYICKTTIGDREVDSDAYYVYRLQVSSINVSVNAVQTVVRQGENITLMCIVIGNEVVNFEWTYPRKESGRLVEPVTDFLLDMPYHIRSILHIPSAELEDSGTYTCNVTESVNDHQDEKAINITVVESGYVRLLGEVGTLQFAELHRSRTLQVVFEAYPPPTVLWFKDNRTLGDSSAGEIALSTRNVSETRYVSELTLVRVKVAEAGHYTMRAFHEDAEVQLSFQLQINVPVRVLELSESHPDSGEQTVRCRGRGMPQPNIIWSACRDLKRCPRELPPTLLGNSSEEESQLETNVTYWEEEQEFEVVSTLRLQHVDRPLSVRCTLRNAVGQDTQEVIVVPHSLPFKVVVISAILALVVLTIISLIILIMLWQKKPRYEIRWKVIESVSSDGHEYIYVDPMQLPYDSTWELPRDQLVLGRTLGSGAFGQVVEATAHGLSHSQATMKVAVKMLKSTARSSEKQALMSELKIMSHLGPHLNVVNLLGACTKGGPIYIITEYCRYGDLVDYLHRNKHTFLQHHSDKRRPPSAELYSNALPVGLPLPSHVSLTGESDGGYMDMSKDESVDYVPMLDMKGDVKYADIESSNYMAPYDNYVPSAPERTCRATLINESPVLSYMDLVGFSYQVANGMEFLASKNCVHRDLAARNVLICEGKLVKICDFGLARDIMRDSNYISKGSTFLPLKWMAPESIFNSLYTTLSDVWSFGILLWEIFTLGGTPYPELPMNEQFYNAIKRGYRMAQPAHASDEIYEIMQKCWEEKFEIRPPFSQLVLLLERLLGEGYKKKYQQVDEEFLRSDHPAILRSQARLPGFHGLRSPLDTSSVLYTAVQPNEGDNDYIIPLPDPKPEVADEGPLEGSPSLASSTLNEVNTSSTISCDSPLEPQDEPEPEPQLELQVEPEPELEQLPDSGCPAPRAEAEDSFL

HIPK4 (human) = HIPK4 (human) (UniProt Q8NE63); assay: Caliper, Mobility shift assay off-chip
MAP2K3 (human) = MAP2K3 (human) (UniProt P46734); assay: ELISA
Sequence of MAP2K3 (human) (P46734 whole entry, looked up): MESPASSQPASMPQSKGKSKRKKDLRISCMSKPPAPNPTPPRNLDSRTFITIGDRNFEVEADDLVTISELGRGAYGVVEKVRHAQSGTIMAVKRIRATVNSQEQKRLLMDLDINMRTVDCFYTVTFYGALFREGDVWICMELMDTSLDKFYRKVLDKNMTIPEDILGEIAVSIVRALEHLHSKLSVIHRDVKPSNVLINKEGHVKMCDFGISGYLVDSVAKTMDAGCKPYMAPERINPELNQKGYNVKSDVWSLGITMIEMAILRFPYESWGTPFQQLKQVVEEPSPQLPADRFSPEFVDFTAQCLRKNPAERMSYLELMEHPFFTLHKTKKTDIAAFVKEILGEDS

MAP2K6 (human) = MAP2K6 (human) (UniProt P52564); assay: ELISA
Sequence of MAP2K6 (human) (P52564 whole entry, looked up): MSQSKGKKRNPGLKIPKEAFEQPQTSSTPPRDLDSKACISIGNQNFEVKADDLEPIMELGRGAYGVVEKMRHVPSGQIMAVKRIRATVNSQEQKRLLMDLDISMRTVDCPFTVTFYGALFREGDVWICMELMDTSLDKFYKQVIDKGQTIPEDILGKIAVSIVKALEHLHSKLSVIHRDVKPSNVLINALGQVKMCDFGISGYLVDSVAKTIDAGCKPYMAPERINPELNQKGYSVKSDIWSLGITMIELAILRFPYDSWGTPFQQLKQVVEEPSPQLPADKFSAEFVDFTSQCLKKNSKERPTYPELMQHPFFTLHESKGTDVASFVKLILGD

FGFR2 (human) = FGFR2 (human) (UniProt P21802); assay: Caliper, Mobility shift assay off-chip

Sequence of PRKAA2 (human) (P54646 whole entry, looked up): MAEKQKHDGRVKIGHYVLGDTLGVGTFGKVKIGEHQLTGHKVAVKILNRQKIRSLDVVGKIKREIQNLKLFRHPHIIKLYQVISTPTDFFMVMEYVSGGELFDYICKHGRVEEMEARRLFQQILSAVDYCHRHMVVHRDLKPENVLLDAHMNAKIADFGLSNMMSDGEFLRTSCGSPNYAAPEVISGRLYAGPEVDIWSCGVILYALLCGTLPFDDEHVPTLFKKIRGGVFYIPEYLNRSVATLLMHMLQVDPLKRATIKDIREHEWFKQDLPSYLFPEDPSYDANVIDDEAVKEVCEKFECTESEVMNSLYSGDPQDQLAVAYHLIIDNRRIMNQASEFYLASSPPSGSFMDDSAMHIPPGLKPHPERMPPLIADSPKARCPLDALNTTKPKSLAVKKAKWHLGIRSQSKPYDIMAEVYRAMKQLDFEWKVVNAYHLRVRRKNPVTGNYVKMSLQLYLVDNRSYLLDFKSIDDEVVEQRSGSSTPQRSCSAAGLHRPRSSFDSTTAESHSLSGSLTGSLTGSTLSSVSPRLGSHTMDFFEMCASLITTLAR
Sequence of ABL2 (human) (P42684 whole entry, looked up): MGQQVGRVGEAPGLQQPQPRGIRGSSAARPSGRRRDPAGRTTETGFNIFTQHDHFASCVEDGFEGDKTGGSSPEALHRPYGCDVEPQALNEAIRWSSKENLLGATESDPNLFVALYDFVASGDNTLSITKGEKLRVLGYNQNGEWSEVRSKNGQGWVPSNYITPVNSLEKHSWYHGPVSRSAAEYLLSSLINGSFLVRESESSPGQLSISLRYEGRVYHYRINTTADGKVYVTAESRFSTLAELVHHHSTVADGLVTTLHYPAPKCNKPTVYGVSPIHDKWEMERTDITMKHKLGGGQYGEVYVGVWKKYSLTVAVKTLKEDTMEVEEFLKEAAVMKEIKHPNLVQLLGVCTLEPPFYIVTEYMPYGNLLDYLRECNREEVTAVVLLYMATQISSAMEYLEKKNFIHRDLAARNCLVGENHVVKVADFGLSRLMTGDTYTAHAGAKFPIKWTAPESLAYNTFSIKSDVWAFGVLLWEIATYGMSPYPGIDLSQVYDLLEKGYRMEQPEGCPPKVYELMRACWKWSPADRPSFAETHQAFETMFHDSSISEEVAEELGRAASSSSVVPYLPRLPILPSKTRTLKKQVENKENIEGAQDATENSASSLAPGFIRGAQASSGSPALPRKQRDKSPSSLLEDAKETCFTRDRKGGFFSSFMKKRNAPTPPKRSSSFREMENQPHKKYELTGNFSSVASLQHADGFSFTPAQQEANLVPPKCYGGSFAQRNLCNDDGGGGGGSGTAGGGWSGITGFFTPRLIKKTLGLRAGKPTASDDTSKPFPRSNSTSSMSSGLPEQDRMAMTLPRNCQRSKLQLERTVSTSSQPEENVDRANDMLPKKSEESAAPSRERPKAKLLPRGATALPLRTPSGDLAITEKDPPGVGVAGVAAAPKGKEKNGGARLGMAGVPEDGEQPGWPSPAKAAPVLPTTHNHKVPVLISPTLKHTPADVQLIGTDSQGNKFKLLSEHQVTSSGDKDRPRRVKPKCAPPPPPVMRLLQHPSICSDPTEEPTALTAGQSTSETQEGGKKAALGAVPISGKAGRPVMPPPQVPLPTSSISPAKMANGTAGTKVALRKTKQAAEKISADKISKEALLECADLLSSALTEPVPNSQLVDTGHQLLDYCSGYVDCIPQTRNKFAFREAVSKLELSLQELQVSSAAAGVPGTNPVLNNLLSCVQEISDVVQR

Cc1ccc(F)c(NC(=O)Nc2ccc(-c3cccc4[nH]nc(N)c34)cc2)c1
Ki (ABL2 (human)): 5 µM
Ki (PRKAA2 (human)): 1.67 µM
Ki (PDGFRA (human)): 0.00276 µM
Ki (BRAF (human)): 5 µM
Ki (RAF1 (human)): 5 µM

COc1cc2nccc(Oc3ccc(NC(=O)Nc4cc(C)on4)c(Cl)c3)c2cc1OC
Ki (AURKA (human)): 0.0865 µM
Ki (CSF1R (human)): 0.0458 µM
Ki (DDR2 (human)): 0.00195 µM
Ki (DDR1 (human)): 0.052 µM
Ki (PRKAA1 (human)): 1.5 µM
Ki (ABL2 (human)): 0.0525 µM
Ki (MAPK14 (human)): 0.266 µM
Ki (MUSK (human)): 0.291 µM
Ki (EPHA6 (human)): 0.00314 µM
Ki (PRKAA2 (human)): 1.5 µM
Ki (PDGFRB (human)): 0.0014 µM
Ki (HIPK4 (human)): 0.0429 µM
Ki (MAP2K3 (human)): 0.272 µM
Ki (MAP2K6 (human)): 0.301 µM

Cc1cc2c(F)c(Oc3ncnn4cc(OC[C@@H](C)O)c(C)c34)ccc2[nH]1
Ki (FGFR2 (human)): 0.0181 µM
